Laboratory results published in ChEMBL document CHEMBL5126521, “Analgesic Opioid Ligand Discovery Based on Nonmorphinan Scaffolds Derived from Natural Sources” (J Med Chem, 2022).

Legend:
[1] = system: Mus musculus; assay: Antinociceptive activity in sc dosed visceral pain mouse model; type: functional
[2] = molecular target: T1, Delta-type opioid receptor (Homo sapiens, UniProt P41143); assay: Inhibition of DOP (unknown origin)
[3] = system: Mus musculus; assay: Antinociceptive activity in sc dosed mouse by tail flick assay; type: functional
[4] = system: Mus musculus; assay: Antinociceptive activity in po dosed mouse by hot plate assay; type: functional
[5] = molecular target: T2, Mu-type opioid receptor (Homo sapiens, UniProt P35372); assay: Binding affinity to MOP (unknown origin)
[6] = system: Mus musculus; assay: Antinociceptive activity in po dosed mouse by tail flick assay; type: functional
[7] = molecular target: T3, Mu-type opioid receptor (Cavia porcellus, UniProt P97266); assay: Displacement of [3H]DAMGO from guinea pig brain membrane MOP incubated for 1 hr by scintillation counter analysis; type: cell membranes
[8] = system: Mus musculus; assay: Antinociceptive activity in sc dosed mouse by hot plate assay; type: functional
[9] = Toxicity in po dosed mouse assessed as antinociceptive activity tolerance by tail flick assay; type: organism-based; details: in vivo
[10] = molecular target: Delta-type opioid receptor (Mus musculus, UniProt P32300); assay: Inhibition of mouse DOP
[11] = molecular target: T4, Kappa-type opioid receptor (Homo sapiens, UniProt P41145); assay: Inhibition of KOP (unknown origin)
[12] = system: Mus musculus; assay: Antinociceptive activity in po dosed mouse; type: functional
[13] = molecular target: T2, Mu-type opioid receptor; assay: Agonist activity at MOP (unknown origin); type: functional
[14] = molecular target: T5, Kappa-type opioid receptor (Mus musculus, UniProt P33534); assay: Inhibition of mouse KOP
[15] = molecular target: T6, Kappa-type opioid receptor (Cavia porcellus, UniProt P41144); assay: Displacement of [3H]U69593 from guinea pig brain membrane KOP incubated for 1 hr by scintillation counter analysis; type: cell membranes
[16] = molecular target: T1, Delta-type opioid receptor; assay: Binding affinity to DOP (unknown origin)
[17] = Toxicity in sc dosed mouse assessed as antinociceptive activity tolerance by tail flick assay; type: organism-based; details: in vivo
[18] = Displacement of [3H]naltrindole from guinea pig brain membrane DOP incubated for 3 hr by scintillation counter analysis; type: cell membranes, Cavia porcellus
[19] = species: Mus musculus; assay: Antinociceptive activity in mouse by tail pressure test; type: functional; details: Mus musculus; read-out: ED50
[20] = system: Mus musculus; assay: Antinociceptive activity in mouse administered IV; type: functional
[21] = Toxicity in rat assessed as antinociceptive activity tolerance at 3 to10 nmol/kg measured after 5 days with 62 pmol/h icv infusion relative to control; details: in vivo, icv_or_intrathecal, 120 h, at 10 nmol/kg, time 5 day
[22] = species: Rattus norvegicus; assay: Antinociceptive activity in rat; type: functional; details: Rattus norvegicus; read-out: ED50
[23] = molecular target: T7, Mu-type opioid receptor (Mus musculus, UniProt P42866); assay: Antagonist activity at mouse vas deferns MOP; type: functional
[24] = molecular target: T3, Mu-type opioid receptor; assay: Antagonist activity at guinea pig ileum MOP; type: functional, tissue-based
[25] = molecular target: T7, Mu-type opioid receptor; assay: Antagonist activity at mouse brain homogenate MOP; type: functional, tissue-based
[26] = system: Rattus norvegicus; assay: Antinociceptive activity in rat administered icv; type: functional
[27] = system: Mus musculus; assay: Antinociceptive activity in mouse administered icv; type: functional
[28] = system: Mus musculus; assay: Antinociceptive activity in mouse administered iv by hot plate test; type: functional
[29] = molecular target: T4, Kappa-type opioid receptor; assay: Agonist activity at KOP (unknown origin) assessed as inhibition of forskolin-induced cAMP accumulation; type: functional
[30] = molecular target: T2, Mu-type opioid receptor; assay: Agonist activity at human MOP stably expressed in CHO-K1 cells assessed as inhibition of forskolin-induced cAMP accumulation; type: functional, cell-based
[31] = system: Mus musculus; assay: Antinociceptive activity in ip dosed mouse assessed as tail flick latency; type: functional
[32] = system: Rattus norvegicus; assay: Antinociceptive activity in rat administered iv; type: functional
[33] = molecular target: Delta-type opioid receptor (Rattus norvegicus, UniProt P33533); assay: Displacement of [3H][DAla2]deltorphin-I from rat brain DOP incubated for 90 mins by scintillation counter; type: tissue-based
[34] = molecular target: Mu-type opioid receptor (Rattus norvegicus, UniProt P33535); assay: Displacement of [3H]DAGO from rat brain MOP incubated for 90 mins by scintillation counter; type: tissue-based
[35] = molecular target: T6, Kappa-type opioid receptor; assay: Displacement of [3H]U69593 from guinea pig brain KOP incubated for 90 mins by scintillation counter; type: tissue-based
[36] = species: Mus musculus; assay: Antinociceptive activity in mouse; type: functional
[37] = Toxicity in rat assessed as inhibition of hypercapnic respiratory response at 9 to 120 nmol icv or sc; details: in vivo, icv_or_intrathecal, dose 9-120 nmol
[38] = system: Rattus norvegicus; assay: Antinociceptive activity in rat at 9 to 120 nmol icv or sc; type: functional; details: dose 9-120 nmol
[39] = Displacement of [3H]DPDPE from calf frontal cortex membrane Delta-type opioid receptor by competitive binding assay; type: cell membranes, Bos taurus
[40] = molecular target: Mu-type opioid receptor (Bos taurus, UniProt P79350); assay: Displacement of [3H]DAMGO from calf thalamus membrane MOP by competitive binding assay; type: cell membranes
[41] = molecular target: T5, Kappa-type opioid receptor; assay: Displacement of [3H]U69593 from mouse brain membrane KOP by competitive binding assay; type: cell membranes
[42] = system: Mus musculus; assay: Antinociceptive activity in mouse at 3.2 to 32 pmol IT or sc; type: functional; details: dose 3.2-32 pmol
[43] = Toxicity in mouse assessed as inhibition of gastrointestinal transit at 3.2 to 32 pmol IT or sc by charcoal meal test; type: organism-based; details: in vivo, other, dose 3.2-32 pmol
[44] = Toxicity in ip dosed mouse assessed as antinociceptive tolerance; type: organism-based; details: in vivo
[45] = system: Mus musculus; assay: Antinociceptive activity in icv dosed mouse assessed as tail flick latency; type: functional
[46] = system: Mus musculus; assay: Antinociceptive activity in sc dosed mouse assessed as tail flick latency; type: functional

With CC[C@@H]1CN2CC[C@]3(O)c4c(cccc4OC)NC3[C@@H]2C[C@@H]1/C(=C\OC)C(=O)OC (stereo not given in full) the ED50 [1] was 0.15 mg/kg, the IC50 [2] was 2520 nM and the ED50 [3] was 0.8 mg/kg. The ED50 [4] was 2.2 mg/kg, the Ki [5] was 47 nM and the ED50 [6] was 4.4 mg/kg. It also gave a Ki [7] of 11 nM, an ED50 [8] of 0.93 mg/kg and an ED50 [9] of 7.5 mg/kg. The IC50 [10] was 10000 nM, the IC50 [11] was 691 nM and the ED50 [12] was 1.1 mg/kg. It also gave an EC50 [13] of 34.5 nM, an IC50 [14] of 7900 nM and a Ki [15] of 85 nM. For the same compound, the Ki [16] was 219 nM, the ED50 [17] was 1.19 mg/kg and the Ki [18] was 96 nM.
C[C@@H](NC(=O)[C@@H](N)Cc1ccc(O)cc1)C(=O)N[C@@H](Cc1ccccc1)C(=O)NCC(=O)N[C@@H](Cc1ccc(O)cc1)C(=O)N1CCC[C@H]1C(=O)N[C@@H](CO)C(N)=O [DERMORPHIN] gave an ED50 [19] of 4.6 µmol/kg, an ED50 [20] of 0.46 µmol/kg and an Activity [21] of 63%. The ED50 [22] was 1.5 µmol/kg, the IC50 [23] was 16.5 nM and the IC50 [24] was 1.1 nM. The IC50 [25] was 0.76 nM, the ED50 [26] was 23 pmol and the ED50 [27] was 6.7 pmol. It also gave an ED50 [28] of 1 µmol/kg.
For COC(=O)[C@@H]1C[C@H](OC(=O)c2ccc(CO)cc2)C(=O)[C@H]2[C@@]1(C)CC[C@H]1C(=O)O[C@H](c3ccoc3)C[C@]21C, the EC50 [29] was over 10000 nM, the EC50 [30] was 0.03 nM and the ED50 [31] was 2.35 mg/kg.
For C[C@@H](NC(=O)[C@@H](N)Cc1ccc(O)cc1)C(=O)N[C@@H](Cc1ccccc1)C(=O)NCC(=O)N[C@@H](Cc1ccc(O)cc1)C(=O)N1CCC[C@H]1C(=O)N[C@@H](CCCCN)C(N)=O, the ED50 [32] was 0.06 µmol/kg, the Ki [33] was 1100 nM and the Ki [34] was 0.09 nM. The Ki [35] was 617 nM, the ED50 [36] was 0.22 µmol/kg and the IC50 [23] was 52 nM. For the same compound, the IC50 [24] was 1.7 nM, the ED50 [26] was 0.03 pmol and the Activity [37] was 45.9 µmol/kg. For the same compound, the ED50 [38] was 21.5 µmol/kg.
With Cc1cc(O)cc(C)c1C[C@H](N)C(=O)N[C@H](CCCNC(=N)N)C(=O)N[C@@H](Cc1ccccc1)C(=O)N[C@@H](CCCCN)C(N)=O the Ki [39] was 116 nM, the Ki [40] was 0.14 nM and the Ki [41] was 11.5 nM. It also gave an ED50 [42] of 0.0655 mg/kg and an ED50 [43] of 0.006 mg/kg.
COC(=O)[C@@H]1C=C(OC(=O)c2ccccc2)C(=O)[C@H]2[C@@]1(C)CC[C@H]1C(=O)O[C@H](c3ccoc3)C[C@]21C showed an ED50 [31] of 5 mg/kg and an ED50 [44] of 7.9 mg/kg.
COC(=O)[C@@H]1C[C@H](OC(C)=O)C(=O)[C@H]2[C@@]1(C)CC[C@H]1C(=O)O[C@H](c3ccoc3)C[C@]21C [SALVINORIN A] gave an ED50 [45] of 1.5 µg and an ED50 [46] of 2.1 mg/kg.
